Assay results reported in US8778871B2 (Takeda Pharmaceutical Company Limited, priority 2004, dated 2014).
Starred links: 1 amine or outer side, 2 acyl side, 3 side chain; linkers in the order of their positions; H or OH if unused. Non-standard residues stand in square brackets, D forms with d. Residues, ends and D or L forms follow the SMILES beside them. *: point of attachment. X10 = CNC(=N)NCCC[C@H](NC(=O)[C@H](CC(C)C)NCCN*)C(=O)N[C@@H](Cc1ccccc1)C(N)=O; X1 = NC(=O)C[C@@H](C(=O)[*:2])N(C[C@@H](N)Cc1ccc(O)cc1)[*:1]; Acetyl(2-(4-imidazolyl)) = O=C(Cc1c[nH]cn1)*; X8 = O=C([C@H](Cc1ccc2ccccc2n1)N[*:1])[*:2]; Phe(4-F) = N[C@@H](Cc1ccc(F)cc1)C(=O)O; Arg(Me) = CNC(=N)NCCC[C@H](N)C(=O)O; 4Pal = N[C@@H](Cc1ccncc1)C(=O)O; d4Pal = N[C@H](Cc1ccncc1)C(=O)O; Cha = N[C@@H](CC1CCCCC1)C(=O)O; Cbz = O=C(OCc1ccccc1)*; Bz = O=C(c1ccccc1)*; azaGly = NNC(=O)O

Target: T1, hOT7T175 (Homo sapiens, UniProt Q969F8)
T1 construct: expressed in transfected cells
T1 sequence (Q969F8 whole entry L364H): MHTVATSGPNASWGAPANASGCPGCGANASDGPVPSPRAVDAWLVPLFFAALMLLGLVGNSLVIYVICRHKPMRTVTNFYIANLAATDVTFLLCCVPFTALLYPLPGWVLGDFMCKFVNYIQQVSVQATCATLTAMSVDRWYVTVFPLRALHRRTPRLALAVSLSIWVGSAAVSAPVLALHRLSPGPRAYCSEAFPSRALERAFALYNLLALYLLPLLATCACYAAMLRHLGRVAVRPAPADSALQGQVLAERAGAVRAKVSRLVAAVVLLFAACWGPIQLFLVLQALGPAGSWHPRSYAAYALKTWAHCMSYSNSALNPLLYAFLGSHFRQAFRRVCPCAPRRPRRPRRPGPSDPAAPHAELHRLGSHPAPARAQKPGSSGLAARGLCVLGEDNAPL
Assay: Intracellular Ca ion level-increasing activity using FLIPR (180 seconds; specific activity to Metastin (1-54))
Format: cell-based
Settings: hOT7T175/CHO, change in intracellular calcium ion level for 180 seconds, Tables 21-23
Procedure: In accordance with the method described in JPA 2000-312590, the intracellular Ca ion level-increasing activity was measured using FLIPR. […]
The intracellular Ca ion level-increasing activity of the synthetic peptide in hOT7T175/CHO was determined using FLIPR (Molecular Devices, Inc.).
hOT7T175/CHO was subcultured in DMEM supplemented with 10% dialyzed fetal bovine serum (hereinafter abbreviated as dFBS) and provided for the experiment (hereinafter abbreviated as 10% dFBS/DMEM). The hOT7T175/CHO was suspended in 10% dFBS-DMEM in 15×10^4 cells/ml. The suspension was inoculated on a 96-well plate for FLIPR (Black Plate Clear Bottom, Coster, Inc.) at 200 μl each (3.0×10^4 cells/200 μl), followed by incubation at 37° C. overnight in a 5% CO2 incubator. The cells thus incubated were used (hereinafter simply referred to as the cell plate). Then, 21 ml of HANKS/HBSS (9.8 g of HANKS', 0.35 g of sodium hydrogencarbonate, 20 ml of 1M HEPES; after adjusting the pH to 7.4 with 1N sodium hydroxide, the mixture was subjected to sterilization through a filter), 210 μl of […] Probenecid and 210 μl of fetal bovine serum (FBS) were mixed (HANKS/HBSS-Probenecid-FBS).
Furthermore, 2 vials of Fluo3-AM (50 μg/vial) were dissolved in 21 μL of dimethylsulfoxide and 21 μL of 20% Pluronic acid. The resulting solution was added to and mixed with 10 ml of HANKS/HBSS-Probenecid-FBS described above. After the culture medium was removed, the mixture was dispensed onto the cell plate in 100 μl each/well, followed by incubation at 37° C. for an hour in a 5% CO2 incubator (pigment loading). The peptide was dissolved in dimethylsulfoxide in 1×10^−3 M. The peptide solution was diluted with HANKS'/HBSS containing 2.5 mM Probenecid and 0.2% BSA. The dilution was transferred to a 96-well plate for FLIPR (V-Bottom plate, Coster, Inc.) (hereinafter referred to as a sample plate). After completion of the pigment loading onto the cell plate, the cell plate washed 4 times with wash buffer, which was obtained by adding 2.5 mM Probenecid to HANKS'/HBSS, using a plate washer to leave 100 μL of wash buffer after the washing. The cell plate and the sample plate were set in FLIPR and 0.05 ml of a sample from the sample plate was automatically transferred to the cell plate with the FLIPR device to promote the cell response. A change in intracellular calcium ion level for 180 seconds was measured with passage of time.

Compound | intracellular Ca ion level-increasing activity [specific activity to Metastin (1-54)]
CNC(=N)NCCC[C@H](NC(=O)[C@H](CC(C)C)NC(=O)NNC(=O)[C@H](Cc1ccccc1)NC(=O)[C@H](CO)NC(=O)[C@H](CC(N)=O)NC(=O)[C@@H](Cc1c[nH]c2ccccc12)NC(=O)[C@H](CC(N)=O)NC[C@@H](N)Cc1ccc(O)cc1)C(=O)N[C@@H](Cc1ccccc1)C(N)=O [Compound No. 300, TyrΨ(CH2NH)Asn-D-Trp-Asn-Ser-Phe-AzaGly-Leu-Arg(Me)-Phe-NH2] (H-[X1][dW]NSF[azaGly]L[Arg(Me)]F-NH2) | 5
CNC(=N)NCCC[C@H](NC(=O)[C@H](CC(C)C)NC(=O)NNC(=O)[C@H](Cc1ccccc1)NC(=O)[C@H](CO)NC(=O)[C@H](CC(N)=O)NC(=O)[C@H](Cc1ccc2ccccc2n1)NC(=O)[C@H](CC(N)=O)NC(=O)[C@H](N)Cc1ccc(O)cc1)C(=O)N[C@@H](Cc1ccccc1)C(N)=O [Compound No. 301, D-Tyr-Asn-Ala(2-Qui)-Asn-Ser-Phe-AzaGly-Leu-Arg(Me)-Phe-NH2] (H-[dY]N[X8]NSF[azaGly]L[Arg(Me)]F-NH2) | 1
CNC(=N)NCCC[C@H](NC(=O)[C@H](CC(C)C)NC(=O)NNC(=O)[C@H](Cc1ccccc1)NC(=O)[C@H](CO)NC(=O)[C@H](CC(N)=O)NC(=O)[C@@H](Cc1ccncc1)NC(=O)[C@H](CC(N)=O)NC(=O)[C@H](N)Cc1ccc(O)cc1)C(=O)N[C@@H](Cc1ccccc1)C(N)=O [Compound No. 302, D-Tyr-Asn-D-Pya(4)-Asn-Ser-Phe-AzaGly-Leu-Arg(Me)-Phe-NH2] (H-[dY]N[d4Pal]NSF[azaGly]L[Arg(Me)]F-NH2) | 2
CNC(=N)NCCC[C@H](NC(=O)[C@H](CC(C)C)NC(=O)NNC(=O)[C@H](Cc1ccccc1)NC(=O)[C@H](CO)NC(=O)[C@H](CC(N)=O)NC(=O)[C@H](Cc1ccncc1)NC(=O)[C@@H](CC(N)=O)NC(=O)[C@@H](N)Cc1ccc(O)cc1)C(=O)N[C@@H](Cc1ccccc1)C(N)=O [Compound No. 304, Tyr-D-Asn-Pya(4)-Asn-Ser-Phe-AzaGly-Leu-Arg(Me)-Phe-NH2] (H-Y[dN][4Pal]NSF[azaGly]L[Arg(Me)]F-NH2) | 3
CNC(=N)NCCC[C@H](NC(=O)[C@H](CC(C)C)NC(=O)NNC(=O)[C@H](Cc1ccccc1)NC(=O)[C@H](CO)NC(=O)[C@H](CC(N)=O)NC(=O)[C@H](CC1CCCCC1)NC(=O)[C@@H](CC(N)=O)NC(=O)[C@H](N)Cc1ccncc1)C(=O)N[C@@H](Cc1ccccc1)C(N)=O [Compound No. 306, D-Pya(4)-D-Asn-Cha-Asn-Ser-Phe-AzaGly-Leu-Arg(Me)-Phe-NH2] (H-[d4Pal][dN][Cha]NSF[azaGly]L[Arg(Me)]F-NH2) | 2
CNC(=N)NCCC[C@H](NC(=O)[C@H](CC(C)C)NCCNC(=O)[C@H](Cc1ccccc1)NC(=O)[C@H](CO)NC(=O)[C@H](CC(N)=O)NC(=O)[C@H](Cc1c[nH]c2ccccc12)NC(=O)[C@H](CC(N)=O)NC(=O)[C@H](N)Cc1ccc(O)cc1)C(=O)N[C@@H](Cc1ccccc1)C(N)=O [Compound No. 307, D-Tyr-Asn-Trp-Asn-Ser-Phe-GlyΨ(CH2NH)Leu-Arg(Me)-Phe-NH2] (H-[dY]NWNSF-X10) | 1
CNC(=N)NCCC[C@H](NC(=O)[C@H](CC(C)C)NC(=O)NNC(=O)[C@H](Cc1ccccc1)NC(=O)[C@H](CO)NC(=O)[C@H](CC(N)=O)NC(=O)[C@@H](NC(=O)[C@@H](CC(N)=O)NC(=O)[C@H](N)Cc1ccc(O)cc1)[C@@H](C)O)C(=O)N[C@@H](Cc1ccc(F)cc1)C(N)=O [Compound No. 316, D-Tyr-D-Asn-Thr-Asn-Ser-Phe-AzaGly-Leu-Arg(Me)-Phe(4F)-NH2] (H-[dY][dN]TNSF[azaGly]L[Arg(Me)][Phe(4-F)]-NH2) | 1
CNC(=N)NCCC[C@H](NC(=O)[C@H](CC(C)C)NC(=O)NNC(=O)[C@H](Cc1ccccc1)NC(=O)[C@H](CO)NC(=O)[C@H](CC(N)=O)NC(=O)[C@H](Cc1ccncc1)NC(=O)[C@@H](CC(N)=O)NC(=O)[C@H](N)Cc1ccc(O)cc1)C(=O)N[C@@H](Cc1ccc(F)cc1)C(N)=O [Compound No. 317, D-Tyr-D-Asn-Pya(4)-Asn-Ser-Phe-AzaGly-Leu-Arg(Me)-Phe(4F)-NH2] (H-[dY][dN][4Pal]NSF[azaGly]L[Arg(Me)][Phe(4-F)]-NH2) | 1
CNC(=N)NCCC[C@H](NC(=O)[C@H](CC(C)C)NC(=O)NNC(=O)[C@H](Cc1ccccc1)NC(=O)[C@H](CO)NC(=O)[C@H](CC(N)=O)NC(=O)Cc1c[nH]cn1)C(=O)N[C@@H](Cc1ccccc1)C(N)=O [Compound No. 323, 4-Imidazoleacetyl-Asn-Ser-Phe-AzaGly-Leu-Arg(Me)-Phe-NH2] ({Acetyl(2-(4-imidazolyl))}-NSF[azaGly]L[Arg(Me)]F-NH2) | 1
(2R)-2-Benzoyloxy-3-phenylpropionyl-AzaGly-Leu-Arg(Me)-Trp-NH2 [Compound No. 412] | ⅕
(2S)-2-Benzoyloxy-3-phenylpropionyl-AzaGly-Leu-Arg(Me)-Trp-NH2 [Compound No. 380] | 5
(2S)-2-acetoxy-3-phenylpropionyl-AzaGly-Leu-Arg(Me)-Trp-NH2 [Compound No. 373] | 2
(R)-3-hydroxy-2-methylpropionyl-Phe-AzaGly-Leu-Arg(Me)-Trp-NH2 [Compound No. 452] | 1
(S)-1-(Quinolin-8-yl-carbamoyl)-4-thiapentylcarbamoyl-D-Tyr-Asn-Trp-Asn-Ser-Phe-Gly-Leu-Arg(Me)-Phe-NH2 [Compound No. 400] | 1
Ac-F[azaGly]L[Arg(Me)]F-NH2 [Compound No. 346] | 2
Benzoyl-AzaPhe-AzaGly-Leu-Arg(Me)-Trp-NH2 [Compound No. 431] | 1

Compound | intracellular Ca ion level-increasing activity [specific activity to Metastin (1-54)]
Benzoyl-PheΨ(CH2O)Gly-Leu-Arg(Me)-Trp-NH2 [Compound No. 421] | ⅓
Benzoyl-Pya(2)-AzaGly-Leu-Arg(Me)-Trp-NH2 [Compound No. 441] | 1
Benzoyl-Pya(4)-AzaGly-Leu-Arg(Me)-Trp-NH2 [Compound No. 442] | ½
Benzyl-Phe-AzaGly-Leu-Arg(Me)-Trp-NH2 [Compound No. 450] | ⅓
Benzylphenethylcarbamoyl-AzaGly-Leu-Arg(Me)-Trp-NH2 [Compound No. 417] | 1
Bz-A[azaGly]L[Arg(Me)]W-NH2 [Compound No. 392] | ⅕
Bz-FGLRF-NH2 [Compound No. 351] | ½
Cbz-F[azaGly]L[Arg(Me)]F-NH2 [Compound No. 348] | ⅕
Cbz-[azaGly]L[Arg(Me)]W-NH2 [Compound No. 374] | ⅓
Cyclohexanecarbonyl-Phe-AzaGly-Leu-Arg(Me)-Trp-NH2 [Compound No. 439] | 2
D-Tyr-D-Pya(4)-Asn-Ser-Phe-AzaGly-Leu-Har(Me)-Phe-NH2 [Compound No. 489] | ½
D-Tyr-D-Pya(4)-Asn-Ser-Phe-AzaGly-Leu-Lys-Phe-NH2 [Compound No. 487] | 1
D-Tyr-D-Pya(4)-Asn-Ser-Phe-AzaGly-Leu-Orn-Phe-NH2 [Compound No. 486] | ½
D-Tyr-Pya(4)-Phe-AzaGly-Leu-Arg(Me)-Trp-NH2 [Compound No. 495] | ⅙
Dibenzylaminocarbamoyl-AzaGly-Leu-Arg(Me)-Trp-NH2 [Compound No. 428] | 1/10
Dibenzylaminocarbamoylacetyl-Leu-Arg(Me)-Trp-NH2 [Compound No. 434] | 1/10
